# Results published in patent US20110177046A1, “DITHIAZOLIDINE AND THIAZOLIDINE DERIVATIVES AS ANTICANCER AGENTS” (Betagenon AB, priority 2007, published 2011).
# Tests used:
# [1] = test system: acetyl-CoA carboxylase (ACC); assay: Test F phosphorylation of ACC (Ser 79), Western blot in HepG2 cells; format: cell-based, human; conditions: 10 μM
# Protocol: (§1) The compound of Example 1 was obtained from Isosep AB, Uppsala, Sweden. A stock solution of 10 mM was prepared by dissolving the compound in 100% DMSO.
# (§2) Human hepatoma HepG2 cells were purchased from American Type Culture Collection (ATCC, Manassas, USA). HepG2 cells were cultured in DMEM (Gibco 212885) containing 10% fetal bovine serum (Gibco 10500-064), 100 units/ml penicillin, 100 μg/ml streptomycin (Gibco 15140-122) and 1× non essential amino acids (Gibco 11140). The cells were incubated in a humidified atmosphere of 5% CO2 at 37° C. and passaged every 3 days by trypsinization. For experiments, HepG2 cells were incubated in complete medium with 10% fetal bovine serum in 60 or 100-mm-diameter dishes and grown to ˜70-80% confluence and subjected to assays after overnight serum depletion (16 h). After incubation in serum-free DMEM, the compound of Example 1 that was dissolved in DMSO was added to the medium.
# Cells were lysed in 100 mM TRIS pH 6.8, 2% w/v Sodium dodecyl sulfate (SDS), 10 mM NaF, 10 mM β-glycerophosphate, 1 mM Na Vanadate. Protein concentration of the lysates was measured by BCA protein assay kit (Pierce #23225). […]
# Ob/Ob mice [2] = assay: Test D blood glucose measurement study in diabetic Ob/Ob mice, Method (II); format: in vivo; conditions: 30 mg/kg gavage twice daily for 18 days, vs vehicle
# Protocol: The aim of this study was to verify the efficacy of compound of Example 1 in the diabetic ob/ob mouse with regard to correction of the metabolic disorder hyperglycemia. Ob/ob mice were gavaged twice daily with compound of Example 1 and the effect of the compound on levels of blood glucose were assessed and the results were compared to a concurrent control group gavaged with vehicle.
# (§3) Male B6.V-Lep^ob/JBomTac (model number OB-M) mice were bred and delivered by Taconic. Animals were housed in Umea University animal facility in transparent polycarbonate cages, with wood chip bedding at a 12 h light/darkness cycle, a temperature of ˜21° C., and a relative humidity of ˜50% throughout the accommodation and dosing periods. 5 animals were housed in each cage with free access to standard rodent chow (CRM(E)Rodent, Special Diets Services, Scanbur BK, Sweden) and tap water. All animal experiments were approved by the Local Ethics Review Committee on Animal Experiments, Umea Region.
# (§4) In vivo potency and efficacy were determined in groups of 10 mice. […]
# Blood glucose levels were measured by using a Glucometer Elite (Bayer) according to the manufacturer's recommendations.
# (§5) Data in the figures are presented as means±SEM. P values were calculated using the Student's t-test. […]
# [3] = test system: MDA-MB-231 human breast cancer cells xenograft tumors; assay: Test B in vivo mouse model Test 2, tumor weight; parameters: species or system Athymic BALB/cA nude mice; conditions: 8 mg/kg i.p. once daily for 27 days; vehicle control approximately 225 mg
# Protocol: 5 week old Athymic BALB/cA nude mice are delivered from Taconic (Denmark) and kept under barrier conditions for 1 week acclimatisation. At 6 weeks, 17 mice are injected subcutaneously on the flank with 1.8×10^6 MDA-MB-231 human breast cancer cells (LGC Promochem-ATCC) in a 50/50 v/v solution of phosphate buffered saline (PBS) (Gibco 10010-015, Invitrogen) Matrigel HC (BD Biosciences).
# After 11 days, palpable tumors are observed in 16 mice. 2 mice are sacrificed and the tumors dissected and examined. 2 groups of 7 mice each are treated once daily by intraperitoneal injections of 1-10 mg/kg bodyweight of test compound in 79% PBS/20% Solutol HS 15 (BASF)/1% DMSO or vehicle control respectively for 5-30 days. The mice are sacrificed by cervical dislocation and tumors are dissected.
# The above test procedure was followed, but 16 (rather than 17) mice were injected subcutaneously.
# 2 groups of 8 mice each were treated once daily by intraperitoneal injections of 8 mg/kg bodyweight of compound of Example 1 in 79% PBS/20% Solutol HS 15(BASF)/1% DMSO or vehicle control respectively for 27 days. Tumors were dissected and weighed at the end of the experiment.
# Ob/Ob mice [4] = assay: Test C insulin measurement study in diabetic Ob/Ob mice, Method (II); format: in vivo; conditions: fed Ob/Ob mice, 30 mg/kg gavage twice daily for 18 days, vs vehicle
# Protocol: The aim of this study was to verify the efficacy of compound of Example 1 in the diabetic ob/ob mouse with regard to correction of the metabolic disorder hyperinsulinemia. Ob/ob mice were gavaged twice daily with compound of Example 1 and the effect of the compound on levels of plasma insulin were assessed and the results were compared to a concurrent control group gavaged with vehicle.
# The compound of Example 1 was obtained from Isosep AB, Uppsala, Sweden. A stock solution of 6 mg/ml was prepared by dissolving the compound in PBS, pH 7.4, 1% DMSO and 0.5% methyl cellulose.
# Male B6.V-Lep^ob/JBomTac (model number OB-M) mice were bred and delivered by Taconic. Animals were housed in Umea University animal facility in transparent polycarbonate cages, with wood chip bedding at a 12 h light/darkness cycle, a temperature of […], and a relative humidity of −50% throughout the accommodation and dosing periods. 5 animals were housed in each cage with free access to standard rodent chow (CRM(E)Rodent, Special Diets Services, Scanbur BK, Sweden) and tap water. […]
# as §4
# Plasma insulin levels were determined according to the manufacturer's recommendations with a rat insulin ELISA kit using mouse insulin standard (Crystal Chem Inc).
# as §5
# AMPK = assay: Test F activation of AMPK, Western blot of phospho-AMPKα Thr172 in HepG2 cells; format: cell-based, human; conditions: 10 μM
# Protocol: as §1, §2
# Cells were lysed in 100 mM TRIS pH 6.8, 2% w/v Sodium dodecyl sulfate (SDS), 10 mM NaF, 10 mM β-glycerophosphate, 1 mM Na Vanadate. Protein concentration of the lysates was measured by BCA protein assay kit (Pierce #23225). 25 μg protein was loaded in each well of a 4-12% bis/tris gel for AMPK detection (Criterion precast gel Bio-Rad #345-0124) or 5% Tris-HCl gel for acetyl-CoA carboxylase (ACC) detection (Criterion Precast gel Bio-Rad #345-0002) and run according to manufacturers recommendation. Gels were blotted onto nitrocellulose filters (Hybond-C extra Amersham #RPN203E). Filters were blocked in 20 mM TRIS pH 7.5, 137 mM NaCl, […] and 5% w/v fat free powdered milk for 30 min. Filters were incubated overnight in blocking solution with phospho-AMPKαThr172, AMPKα or phospho-ACC (Ser 79) (Cell signalling #2531, #2532 and #3661). Filters were washed in 20 mM TRIS pH 7.5, 137 mM NaCl, […] for 3×5 min. Filters were incubated in blocking solution with secondary antibody, peroxidase-conjugated Goat anti rabbit IgG (Jackson immunoResearch #111-035-003) in room temperature for 1 h. Filters were washed as above for 3×10 min. […]
# [5] = test system: human primary mesangial cells; assay: Test G amelioration of TGFβ dependent collagen IV secretion (ELISA); format: cell-based; conditions: 2.5 μM with TGFβ 0.5 ng/ml, 48 h, ELISA absorbance
# Protocol: Human primary mesangial cells (Lonza) were seeded at a density of 57 00 cells per well in a 24 well plate in DMEM (Gibco 212885) supplemented with Non essential amino acids (Gibco 11140) Penicillin/streptomycin (Gibco 15140-122) and 10% Foetal Calf Serum (FBS) (Gibco 10500-064)
# After 24 h incubation, media was changed to DMEM (Gibco 212885) supplemented with Non essential amino acids (Gibco 11140) Penicillin/streptomycin (Gibco 15140-122) and 0.5% Foetal Calf Serum (FBS)(Gibco 10500-064) as the experimental media. After 24 h incubation, media was changed to experimental media containing either vehicle or […] (0.5 ng/ml), compound of Example 1 (2.5 μM), or TGFβ (0.5 ng/ml) and compound of Example 1 (2.5 μM) in combination.
# After 48 h of exposure the supernatant from each well was collected and subjected to ELISA analysis.
# Using Nunc Maxisorp microtiter plates, duplicate samples of conditioned cell culture medium (diluted 1:10) was used for coating ([…], 18 h, +4° C.). […] After 3× washing in ELISA buffer, reactions were visualised using 100 μl/well TMB liquid substrate system for ELISA (Sigma) After maximum 30 min reactions were stopped by addition of 25 μl 1 M H2SO4 and immediately analysed at 450 nm using a Multiskan EX plate reader (Thermo Labsystems).
# Ob/Ob mice [6] = assay: Test E plasma triglyceride study in diabetic Ob/Ob mice, Method (II); format: in vivo; conditions: fed Ob/Ob mice, 15 mg/kg gavage twice daily for 20 days, vs vehicle
# Protocol: The aim of this study was to verify the efficacy of compound of Example 1 in the diabetic ob/ob mouse with regard to correction of the metabolic disorder hypertriglyceridemia. Ob/ob mice were gavaged twice daily with compound of example 1 and the effect of the compound on levels of plasma triglycerides were assessed and the results were compared to a concurrent control group gavaged with vehicle.
# as §3, with “B6.V-Lep^ob/JUmeaTac” for “B6.V-Lep^ob/JBomTac”, “UMEA-M)” for “OB-M)”, “[…]” for “˜21°”, “−50%” for “˜50%”
# as §4
# Plasma triglycerides were determined with an enzymatic colorimetric assay (TRO100, Sigma-Aldrich) according to the manufacturer's recommendations.
# as §5
# [7] = test system: MDA-MB-231 human breast cancer cell lines; assay: Test A cell proliferation assay (BrdU incorporation); format: cell-based; conditions: MDA-MB-231 cells; for BrdU incorporation relative to vehicle control (1 unit): approximate
# Protocol: The cell line was propagated in D-MEM (Gibco 21885) supplemented with 10% Foetal calf serum. 15000 cells per well were seeded in 96 well plates and incubated overnight. The culture media was changed to serum-free D-MEM for 24 h. […] After 18 h incubation, BrdU was added according to manufacturer's recommendations. After 6 h incubation in the presence of BrdU, the culture media was removed and BrdU incorporation was measured using “Cell Proliferation ELISA, BrdU colorimetric” Roche (11647229001) according to manufacturer's recommendations.
smiles,measurement,setting,value
"O=C1N=C(NS(=O)(=O)c2ccc(Cl)c(Cl)c2)SC1Cc1cccc(C(F)(F)F)c1 (centres unmarked) [Example 1, 5-(3-(Trifluoromethyl)benzyl)-2-(3,4-dichlorophenyl)sulfonyliminothiazolidin-4-one]",Effect on phosphorylation of ACC,[1],enhanced phosphorylation of ACC
same,Effect on fed blood glucose levels,Ob/Ob mice [2],attenuated
same,Tumor weight at the end of the experiment,[3],about 130 mg
same,Effect on hyperinsulinemia (plasma insulin),Ob/Ob mice [4],attenuates hyperinsulinemia
same,Effect on AMPK phosphorylation,AMPK,stimulates AMPK phosphorylation
same,Time for AMPK phosphorylation to rise to near maximal levels,AMPK,≤ 1 h
same,Time for which AMPK phosphorylation was sustained,AMPK,24 h
same,Effect on TGFβ dependent collagen IV secretion,[5],ameliorate the TGFβ dependent collagen IV secretion
same,Effect on plasma triglycerides,Ob/Ob mice [6],attenuated
same,BrdU incorporation relative to vehicle control (1 unit),[7]; 0.5 μM,~0.95 units
same,BrdU incorporation relative to vehicle control (1 unit),[7]; 1 μM,~1 units
same,BrdU incorporation relative to vehicle control (1 unit),[7]; 5 μM,~0.5 units
same,BrdU incorporation relative to vehicle control (1 unit),[7]; 10 μM,~0.15 units
same,Effect on proliferation rate as measured by BrdU incorporation,[7],dose dependent reduction in proliferation
